Values of other authors, collected in patent publication US20230225964A1, “MICROSTIRRING DEVICES AND TECHNIQUES FOR ENHANCING BIOAVAILABILITY OF ORALLY ADMINISTERED DRUGS” (The Regents of the University of California, priority 2022, published 2023).
Converted amounts (≈) assume the structure as drawn.

solubility in water: 66 mg/mL (≈ 335 mM)
SMILES: N[C@@H](Cc1ccc(O)c(O)c1)C(=O)O [L-Dopa, levodopa]
